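How tested: cells in 96-well plates exposed to compound for 48 hours at five concentrations. GI50: concentration for 50% inhibition of growth.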 The source made the active and inactive calls. Cut-off read from the data, not from the text of the source: active = GI50 up to about 1.1 µM and inactive = higher.
Experiments:
Assay in all cases: NCI-60 cell line screen, 48 h
DU-145 = tested on: DU-145
HOP-92 = tested on: HOP-92
UACC-257 = tested on: UACC-257
CCRF-CEM = tested on: CCRF-CEM
SNB-75 = tested on: SNB-75
UO-31 = tested on: UO-31
OVCAR-5 = tested on: OVCAR-5
RPMI-8226 = tested on: RPMI-8226
CAKI-1 = tested on: CAKI-1
HCT-15 = tested on: HCT-15
RXF 393 = tested on: RXF 393
Malme-3M = tested on: Malme-3M
MCF7 = tested on: MCF7
A549 = tested on: A549
M14 = tested on: M14
IGROV-1 = tested on: IGROV-1
MDA-MB-435 = tested on: MDA-MB-435
SN12C = tested on: SN12C
OVCAR-8 = tested on: OVCAR-8
PC-3 = tested on: PC-3
HCT-116 = tested on: HCT-116
COLO 205 = tested on: COLO 205
MDA-MB-231 = tested on: MDA-MB-231
OVCAR-4 = tested on: OVCAR-4
EKVX = tested on: EKVX
KM12 = tested on: KM12
NCI-H226 = tested on: NCI-H226
SK-MEL-5 = tested on: SK-MEL-5
NCI-H522 = tested on: NCI-H522
NCI-H23 = tested on: NCI-H23
OVCAR-3 = tested on: OVCAR-3
SK-MEL-2 = tested on: SK-MEL-2
TK-10 = tested on: TK-10
BT-549 = tested on: BT-549
786-0 = tested on: 786-0
NCI-H460 = tested on: NCI-H460
HOP-62 = tested on: HOP-62
ACHN = tested on: ACHN
HT-29 = tested on: HT-29
SF-268 = tested on: SF-268
Hs-578T = tested on: Hs-578T
SF-295 = tested on: SF-295
NCI/ADR-RES = tested on: NCI/ADR-RES
UACC-62 = tested on: UACC-62
A498 = tested on: A498
U-251 = tested on: U-251
SK-MEL-28 = tested on: SK-MEL-28
K562 = tested on: K562
MDA-N = tested on: MDA-N
SW-620 = tested on: SW-620
LOX IMVI = tested on: LOX IMVI
SK-OV-3 = tested on: SK-OV-3
HCC 2998 = tested on: HCC 2998
SNB-19 = tested on: SNB-19
T47D = tested on: T47D
SF-539 = tested on: SF-539
MOLT-4 = tested on: MOLT-4
HL-60 = tested on: HL-60

CN(CCc1ccccn1)c1ccc2c(c1)C(=O)c1ccccc1-2
GI50 (DU-145): > 100 µM (inactive) | GI50 (HOP-92): 15.2 µM (inactive) | GI50 (UACC-257): 54.6 µM (inactive) | GI50 (CCRF-CEM): > 100 µM (inactive) | GI50 (SNB-75): 99.1 µM (inactive) | GI50 (UO-31): > 100 µM (inactive) | GI50 (OVCAR-5): > 100 µM (inactive) | GI50 (RPMI-8226): 38.3 µM (inactive) | GI50 (CAKI-1): > 100 µM (inactive) | GI50 (HCT-15): 23 µM | GI50 (RXF 393): > 100 µM (inactive) | GI50 (Malme-3M): > 100 µM (inactive) | GI50 (MCF7): > 100 µM (inactive) | GI50 (A549): 14.4 µM (inactive) | GI50 (M14): > 100 µM (inactive) | GI50 (IGROV-1): > 100 µM (inactive) | GI50 (MDA-MB-435): > 100 µM (inactive) | GI50 (SN12C): 53.8 µM (inactive) | GI50 (OVCAR-8): 99.1 µM (inactive) | GI50 (PC-3): > 100 µM (inactive) | GI50 (HCT-116): > 100 µM (inactive) | GI50 (COLO 205): 35.5 µM (inactive) | GI50 (MDA-MB-231): > 100 µM (inactive) | GI50 (OVCAR-4): 69.5 µM (inactive) | GI50 (EKVX): 18.5 µM (inactive) | GI50 (KM12): > 100 µM (inactive) | GI50 (NCI-H226): 40.6 µM (inactive) | GI50 (SK-MEL-5): 35.1 µM (inactive) | GI50 (NCI-H522): 71.1 µM (inactive) | GI50 (NCI-H23): > 100 µM (inactive) | GI50 (OVCAR-3): > 100 µM (inactive) | GI50 (SK-MEL-2): 28.5 µM (inactive) | GI50 (TK-10): > 100 µM (inactive) | GI50 (BT-549): 78.9 µM (inactive) | GI50 (786-0): 41.3 µM (inactive) | GI50 (NCI-H460): 9.68 µM (inactive) | GI50 (HOP-62): > 100 µM (inactive) | GI50 (ACHN): > 100 µM (inactive) | GI50 (HT-29): 66.4 µM (inactive) | GI50 (SF-268): > 100 µM (inactive) | GI50 (Hs-578T): 73.3 µM (inactive) | GI50 (SF-295): 91.4 µM (inactive) | GI50 (NCI/ADR-RES): > 100 µM (inactive) | GI50 (UACC-62): 46.1 µM (inactive) | GI50 (A498): 35.2 µM (inactive) | GI50 (U-251): 43.3 µM (inactive) | GI50 (SK-MEL-28): > 100 µM (inactive) | GI50 (K562): 51.8 µM (inactive) | GI50 (MDA-N): 64.9 µM (inactive) | GI50 (SW-620): > 100 µM (inactive) | GI50 (LOX IMVI): > 100 µM (inactive) | GI50 (SK-OV-3): > 100 µM (inactive) | GI50 (HCC 2998): > 100 µM (inactive) | GI50 (SNB-19): 88.9 µM (inactive) | GI50 (T47D): 73.8 µM (inactive)

CC(=O)/C(=C/NC(=S)c1cccnc1)C(=O)Nc1ccccc1C
GI50 (DU-145): > 100 µM (inactive) | GI50 (HOP-92): > 100 µM (inactive) | GI50 (UACC-257): > 100 µM (inactive) | GI50 (CCRF-CEM): > 100 µM (inactive) | GI50 (SNB-75): > 100 µM (inactive) | GI50 (UO-31): > 100 µM (inactive) | GI50 (SF-539): 30.9 µM (inactive) | GI50 (OVCAR-5): > 100 µM (inactive) | GI50 (RPMI-8226): > 100 µM (inactive) | GI50 (CAKI-1): 41.3 µM (inactive) | GI50 (HCT-15): > 100 µM | GI50 (RXF 393): > 100 µM (inactive) | GI50 (MCF7): > 100 µM (inactive) | GI50 (A549): > 100 µM (inactive) | GI50 (MOLT-4): > 100 µM (inactive) | GI50 (HL-60): 2.37 µM (inactive) | GI50 (M14): > 100 µM (inactive) | GI50 (IGROV-1): > 100 µM (inactive) | GI50 (MDA-MB-435): > 100 µM (inactive) | GI50 (SN12C): > 100 µM (inactive) | GI50 (OVCAR-8): 52.6 µM (inactive) | GI50 (PC-3): 68.9 µM (inactive) | GI50 (HCT-116): 83 µM (inactive) | GI50 (COLO 205): > 100 µM (inactive) | GI50 (MDA-MB-231): > 100 µM (inactive) | GI50 (OVCAR-4): > 100 µM (inactive) | GI50 (EKVX): > 100 µM (inactive) | GI50 (KM12): > 100 µM (inactive) | GI50 (NCI-H226): > 100 µM (inactive) | GI50 (SK-MEL-5): > 100 µM (inactive) | GI50 (NCI-H522): 96.6 µM (inactive) | GI50 (NCI-H23): > 100 µM (inactive) | GI50 (OVCAR-3): 82.6 µM (inactive) | GI50 (SK-MEL-2): > 100 µM (inactive) | GI50 (TK-10): > 100 µM (inactive) | GI50 (BT-549): > 100 µM (inactive) | GI50 (786-0): > 100 µM (inactive) | GI50 (NCI-H460): > 100 µM (inactive) | GI50 (HOP-62): > 100 µM (inactive) | GI50 (ACHN): > 100 µM (inactive) | GI50 (HT-29): > 100 µM (inactive) | GI50 (SF-268): > 100 µM (inactive) | GI50 (Hs-578T): > 100 µM (inactive) | GI50 (SF-295): > 100 µM (inactive) | GI50 (NCI/ADR-RES): 97.5 µM (inactive) | GI50 (UACC-62): > 100 µM (inactive) | GI50 (A498): > 100 µM (inactive) | GI50 (U-251): 71.9 µM (inactive) | GI50 (SK-MEL-28): > 100 µM (inactive) | GI50 (K562): > 100 µM (inactive) | GI50 (MDA-N): > 100 µM (inactive) | GI50 (SW-620): > 100 µM (inactive) | GI50 (LOX IMVI): > 100 µM (inactive) | GI50 (SK-OV-3): > 100 µM (inactive) | GI50 (HCC 2998): > 100 µM (inactive) | GI50 (SNB-19): > 100 µM (inactive) | GI50 (T47D): > 100 µM (inactive)

COc1ccc(-c2oc3cc(OC)c(OC)c(OC)c3c(=O)c2OC)cc1OC [HEXAMETHOXYFLAVONE]
GI50 (DU-145): > 100 µM (inactive) | GI50 (HOP-92): 16.4 µM (inactive) | GI50 (UACC-257): > 100 µM (inactive) | GI50 (CCRF-CEM): > 100 µM (inactive) | GI50 (SNB-75): > 100 µM (inactive) | GI50 (UO-31): 79.1 µM (inactive) | GI50 (SF-539): > 100 µM (inactive) | GI50 (OVCAR-5): > 100 µM (inactive) | GI50 (CAKI-1): > 100 µM (inactive) | GI50 (HCT-15): > 100 µM | GI50 (RXF 393): > 100 µM (inactive) | GI50 (Malme-3M): > 100 µM (inactive) | GI50 (MCF7): > 100 µM (inactive) | GI50 (A549): > 100 µM (inactive) | GI50 (MOLT-4): > 100 µM (inactive) | GI50 (HL-60): 20.8 µM (inactive) | GI50 (M14): > 100 µM (inactive) | GI50 (IGROV-1): > 100 µM (inactive) | GI50 (MDA-MB-435): > 100 µM (inactive) | GI50 (SN12C): > 100 µM (inactive) | GI50 (OVCAR-8): > 100 µM (inactive) | GI50 (PC-3): > 100 µM (inactive) | GI50 (HCT-116): > 100 µM (inactive) | GI50 (COLO 205): > 100 µM (inactive) | GI50 (MDA-MB-231): > 100 µM (inactive) | GI50 (OVCAR-4): > 100 µM (inactive) | GI50 (EKVX): > 100 µM (inactive) | GI50 (KM12): > 100 µM (inactive) | GI50 (NCI-H226): > 100 µM (inactive) | GI50 (SK-MEL-5): 53.8 µM (inactive) | GI50 (NCI-H522): > 100 µM (inactive) | GI50 (NCI-H23): > 100 µM (inactive) | GI50 (OVCAR-3): > 100 µM (inactive) | GI50 (SK-MEL-2): > 100 µM (inactive) | GI50 (TK-10): > 100 µM (inactive) | GI50 (BT-549): > 100 µM (inactive) | GI50 (786-0): > 100 µM (inactive) | GI50 (NCI-H460): > 100 µM (inactive) | GI50 (HOP-62): > 100 µM (inactive) | GI50 (ACHN): > 100 µM (inactive) | GI50 (HT-29): > 100 µM (inactive) | GI50 (SF-268): > 100 µM (inactive) | GI50 (Hs-578T): > 100 µM (inactive) | GI50 (SF-295): > 100 µM (inactive) | GI50 (NCI/ADR-RES): > 100 µM (inactive) | GI50 (UACC-62): > 100 µM (inactive) | GI50 (A498): > 100 µM (inactive) | GI50 (U-251): > 100 µM (inactive) | GI50 (SK-MEL-28): > 100 µM (inactive) | GI50 (K562): > 100 µM (inactive) | GI50 (MDA-N): > 100 µM (inactive) | GI50 (SW-620): > 100 µM (inactive) | GI50 (LOX IMVI): > 100 µM (inactive) | GI50 (SK-OV-3): > 100 µM (inactive) | GI50 (HCC 2998): > 100 µM (inactive) | GI50 (SNB-19): > 100 µM (inactive) | GI50 (T47D): 79.6 µM (inactive)

— ChEMBL document CHEMBL1201862, “PubChem BioAssay data set” (2004)
